Assay results: PMC7659976, “Benzobicyclo[3.2.1]octene Derivatives as a New Class of Cholinesterase Inhibitors” (Molecules, 2020)
Read-outs that look alike come from different tables or passages of the source.

Experiments:
[1] = target: BChE derived from purified human plasma (Homo sapiens, UniProt P06276); assay: biochemical; conditions: 0.1 M phosphate buffer pH 7.4, 25 °C, ATCh substrate
recombinant human AChE = recombinant human AChE (Homo sapiens, UniProt P22303); assay: biochemical; type: biochemical; conditions: for IC50: 0.1 M phosphate buffer pH 7.4, 25 °C, ATCh substrate, read-out: Inhibition of human AChE, IC50 ± SEM
AChE = tested on: AChE; design: method as in doi:10.1016/j.molstruc.2018.05.027, doi:10.3906/kim-1903-74; conditions: photoproducts of Figure 1; read-out: AChE inhibition IC50; cited from earlier work
BChE [2] = tested on: BChE; design: method as in doi:10.1016/j.molstruc.2018.05.027, doi:10.3906/kim-1903-74; conditions: photoproducts of Figure 1; read-out: BChE inhibition IC50; cited from earlier work
BChE [3] = type: biochemical; conditions: compared to huperzine A
[4] = Table 1, benzobicyclo[3.2.1]octadiene benzylamines, read-out: Inhibition of BChE, IC50 ± SEM
[5] = Table 2, oximes and oxime ethers, read-out: Inhibition of BChE, IC50 ± SEM
[6] = Table 4, acylated furo-benzobicyclo[3.2.1]octenes/octadienes, read-out: Inhibition of human BChE, IC50 ± SEM
[7] = Table 4, acylated furo-benzobicyclo[3.2.1]octenes/octadienes
[8] = Table 3, epoxides, alcohols and ethers, read-out: Inhibition of human BChE, IC50 ± SEM
[9] = Table 3, epoxides, alcohols and ethers

Chain of BChE derived from purified human plasma (P06276 29-602): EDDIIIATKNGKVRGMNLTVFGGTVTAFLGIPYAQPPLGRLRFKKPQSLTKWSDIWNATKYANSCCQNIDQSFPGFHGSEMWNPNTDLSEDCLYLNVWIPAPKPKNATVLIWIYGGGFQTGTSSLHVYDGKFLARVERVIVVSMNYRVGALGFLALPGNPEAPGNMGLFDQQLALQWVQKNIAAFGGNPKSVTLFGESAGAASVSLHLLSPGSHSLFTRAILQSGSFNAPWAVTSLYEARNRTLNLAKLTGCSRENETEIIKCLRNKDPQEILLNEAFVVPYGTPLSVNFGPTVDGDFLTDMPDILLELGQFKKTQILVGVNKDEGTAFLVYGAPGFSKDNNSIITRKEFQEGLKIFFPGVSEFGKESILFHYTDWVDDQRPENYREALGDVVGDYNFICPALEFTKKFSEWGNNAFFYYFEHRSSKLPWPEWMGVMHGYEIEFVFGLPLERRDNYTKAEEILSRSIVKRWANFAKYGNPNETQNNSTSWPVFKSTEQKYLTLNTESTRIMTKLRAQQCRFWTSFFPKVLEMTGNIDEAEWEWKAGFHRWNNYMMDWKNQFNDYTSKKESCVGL
Chain of recombinant human AChE (P22303 32-614): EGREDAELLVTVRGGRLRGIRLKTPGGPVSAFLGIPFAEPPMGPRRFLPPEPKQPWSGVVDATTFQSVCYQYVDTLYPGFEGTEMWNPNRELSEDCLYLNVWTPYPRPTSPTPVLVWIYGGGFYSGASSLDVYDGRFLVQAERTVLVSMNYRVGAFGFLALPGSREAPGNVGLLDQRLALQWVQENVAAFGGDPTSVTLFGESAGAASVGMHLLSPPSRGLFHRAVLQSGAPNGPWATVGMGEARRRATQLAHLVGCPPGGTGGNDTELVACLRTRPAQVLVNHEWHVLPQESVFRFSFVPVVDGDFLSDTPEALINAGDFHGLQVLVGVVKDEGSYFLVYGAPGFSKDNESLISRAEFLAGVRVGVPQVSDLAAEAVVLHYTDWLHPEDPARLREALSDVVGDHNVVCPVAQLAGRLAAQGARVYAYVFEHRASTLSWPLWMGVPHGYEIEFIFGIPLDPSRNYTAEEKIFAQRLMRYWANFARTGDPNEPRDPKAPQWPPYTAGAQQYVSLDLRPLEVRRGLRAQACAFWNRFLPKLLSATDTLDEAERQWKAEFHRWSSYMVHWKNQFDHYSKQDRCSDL

## Clc1ccc(C2=CCC3CC2c2ccccc23)cc1 (stereo not drawn) [Compound 1]
[1]; [4]
  IC50: 260 ± 120 µM

## Cc1ccccc1CNc1ccc(C2=CCC3CC2c2ccccc23)cc1 (stereo not drawn) [Compound 9]
[1]; [4]
  IC50: 240 ± 210 µM

## COc1ccc(CNc2ccc(C3=CCC4CC3c3ccccc34)cc2)cc1 (stereo not drawn) [Compound 17]
[1]; [4]
  IC50: 120 ± 64 µM

## Nc1ccc(C2=CCC3CC2c2ccccc23)cc1 (stereo not drawn) [Compound 20]
[1]; [4]
  IC50: 182 ± 98 µM

## CCO/N=C/c1cc2c(o1)CC1CC2c2ccccc21 (stereo not drawn) [Compound 26]
[1]; [5]
  IC50: 380 ± 250 µM

## CCCO/N=C\c1cc2c(o1)CC1CC2c2ccccc21 (stereo not drawn) [Compound 27, (Z)-9,10-Dihydro-4H-4,9-methanobenzo[4,5]cyclohepta[1,2-b]furan-2-carbaldehyde O-propyl oxime]
[1]; [5]
  IC50: 74 ± 19 µM

## CC(C)O/N=C/c1cc2c(o1)CC1CC2c2ccccc21 (stereo not drawn) [Compound 28]
[1]; [5]
  IC50: 24 ± 3 µM

## C=CCO/N=C/c1cc2c(o1)CC1CC2c2ccccc21 (stereo not drawn) [Compound 29]
[1]; [5]
  IC50: 100 ± 32 µM

## CC(=O)O/N=C/c1cc2c(o1)CC1CC2c2ccccc21 (stereo not drawn) [Compound 30]
[1]; [5]
  IC50: 61 ± 36 µM

## CC(C)O/N=C/C/C=C1\C(O)=CC2CC1c1ccccc12 (stereo not drawn) [Compound 31]
[1]; [5]
  IC50: 90 ± 40 µM

## CC(C)O/N=C/C/C=C1\C(O)CC2CC1c1ccccc12 (stereo not drawn) [Compound 32]
[1]; [5]
  IC50: 31 ± 4 µM

## C=CCCO/N=C/C(=O)/C=C1\C=CC2CC1c1ccccc12 (stereo not drawn) [Compound 33]
[1]; [5]
  IC50: 140 ± 49 µM

## CC(=O)O/N=C/C/C=C1\C(O)CC2CC1c1ccccc12 (stereo not drawn) [Compound 34]
[1]; [5]
  IC50: 78 ± 31 µM

## O=C1CC2CC(/C1=C/C/C=N/OCCCCl)c1ccccc12 (stereo not drawn) [Compound 35]
[1]; [5]
  IC50: 60 ± 11 µM

## C/C(O)=C/C=C1\C(O)CC2CC1c1ccccc12 [Compound 51, (5R,9R,Z)-6-((Z)-3-Hydroxybut-2-ene-1-ilydene)-6,7,8,9-tetrahydro-5H-5,9-methano-benzo[7]annulen-7-ol]
[1]; [6]
  IC50: > 300 µM
Recombinant human AChE; [7]
  IC50: 8.3 ± 4 µM

## CCC(=O)C/C=C1\C(O)=CC2CC1c1ccccc12 [Compound 53, (Z)-1-((5R,9R)-7-Hydroxy-5,9-dihydro-6H-5,9-methanobenzo[7]annulen-6-ilydene)-pentan-3-one]
[1]; [6]
  IC50: 146 ± 30 µM
Recombinant human AChE; [7]
  IC50: 188 ± 133 µM

## Clc1ccc(C2C=CC3CC2c2ccccc23)cc1 (stereo not drawn) [endo-1, 11-(4-Chlorophenyl)tricyclo[6.3.1.0^²,7]dodeca-2,4,6,9-tetraene]
AChE
  IC50: 17.5 µM

## C1=CC(c2ccncc2)C2CC1c1ccccc12 (stereo not drawn) [endo-2]
BChE [2]
  IC50: 8.8 µM
BChE [3]
  Potency as BChE inhibitor in comparison to huperzine A: about five times more potent

## C1=C[C@H](c2ccc(NCc3ccccc3)cc2)[C@H]2C[C@@H]1c1ccccc12 [endo-4, N-Benzyl-4-((5R,6S,9S)-6,9-dihydro-5H-5,9-methanobenzo[7]annulen-6-yl)aniline]
[1]; [4]
  IC50: 110 ± 77 µM

## C1=C[C@H](c2ccc(NCc3ccco3)cc2)[C@H]2C[C@@H]1c1ccccc12 [endo-7, 4-((5R,6S,9S)-6,9-Dihydro-5H-5,9-methanobenzo[7]annulen-6-yl)-N-(fur-2-ylmethyl)aniline]
[1]; [4]
  IC50: ≥ 500 µM

## C1=C[C@H](c2ccc(NCc3cccs3)cc2)[C@H]2C[C@@H]1c1ccccc12 [endo-8, 4-((5R,6S,9S)-6,9-dihydro-5H-5,9-methanobenzo[7]annulen-6-yl)-N-(thien-2-ylmethyl)aniline]
[1]; [4]
  IC50: > 500 µM

## Cc1ccccc1CNc1ccc(C2C=CC3CC2c2ccccc23)cc1 (stereo not drawn) [endo-9]
[1]; [4]
  IC50: > 500 µM

## Cc1cccc(CNc2ccc(C3C=CC4CC3c3ccccc34)cc2)c1 (stereo not drawn) [endo-10]
[1]; [4]
  IC50: 63 ± 13 µM

## Cc1ccc(CNc2ccc(C3C=CC4CC3c3ccccc34)cc2)cc1 (stereo not drawn) [endo-11]
[1]; [4]
  IC50: ≥ 500 µM

## Clc1cccc(CNc2ccc(C3C=CC4CC3c3ccccc34)cc2)c1 (stereo not drawn) [endo-13]
[1]; [4]
  IC50: > 500 µM

## Clc1ccc(CNc2ccc(C3C=CC4CC3c3ccccc34)cc2)cc1 (stereo not drawn) [endo-14]
[1]; [4]
  IC50: > 500 µM

## COc1ccccc1CNc1ccc(C2C=CC3CC2c2ccccc23)cc1 (stereo not drawn) [endo-15]
[1]; [4]
  IC50: > 500 µM

## COc1cccc(CNc2ccc(C3C=CC4CC3c3ccccc34)cc2)c1 (stereo not drawn) [endo-16]
[1]; [4]
  IC50: > 500 µM

## COc1ccc(CNc2ccc(C3C=CC4CC3c3ccccc34)cc2)cc1 (stereo not drawn) [endo-17]
[1]; [4]
  IC50: > 500 µM

## Fc1ccccc1CNc1ccc(C2C=CC3CC2c2ccccc23)cc1 (stereo not drawn) [endo-18]
[1]; [4]
  IC50: > 500 µM

## Fc1cccc(CNc2ccc(C3C=CC4CC3c3ccccc34)cc2)c1 (stereo not drawn) [endo-19]
[1]; [4]
  IC50: > 500 µM

## Fc1ccc(CNc2ccc(C3C=CC4CC3c3ccccc34)cc2)cc1 (stereo not drawn) [endo-20]
[1]; [4]
  IC50: > 500 µM

## c1ccc([C@H]2C3OC3[C@@H]3C[C@H]2c2ccccc23)cc1 (stereo partly drawn) [endo-38, (2R,7R,8S)-8-Phenyl-1a,7,8,8a-tetrahydro-2H-2,7-methanobenzo[4,5]cyclohepta[1,2-b]-oxirene]
[1]; [8]
  IC50: 22 ± 5 µM
Recombinant human AChE; AChE versus BChE
  Potency for AChE relative to BChE (fold lower): 3 fold
Recombinant human AChE; [9]
  IC50: 62 ± 8 µM

## COc1ccc([C@H]2[C@@H]3OC3[C@@H]3C[C@H]2c2ccccc23)cc1 (stereo partly drawn) [endo-39, (2R,7R,8S,8as)-8-(4-Methoxyphenyl)-1a,7,8,8a-tetrahydro-2H-2,7-methanobenzo[4,5]cyclohepta[1,2-b]oxirene]
[1]; [8]
  IC50: 33 ± 6 µM
Recombinant human AChE; [9]
  IC50: > 100 µM

## CCCOC1C[C@@H]2C[C@@H](c3ccccc32)[C@H]1c1ccccc1 (stereo partly drawn) [endo-43, (5R,6S,9S)-6-Phenyl-7-propoxy-6,7,8,9-tetrahydro-5H-5,9-methanobenzo[7]annulene]
[1]; [8]
  IC50: 17 ± 2 µM
Recombinant human AChE; [9]
  IC50: > 100 µM

## OCCCOC1CC2CC(c3ccccc32)C1c1ccccc1 [endo-45, 3-(((5R,6S,9S)-6-Phenyl-6,7,8,9-tetrahydro-5H-5,9-methanobenzo[7]annulen-7-il)oxy)propan-1-ol]
[1]; [8]
  IC50: 90 ± 24 µM
Recombinant human AChE; [9]
  IC50: > 100 µM

## CCOC1C[C@@H]2C[C@@H](c3ccccc32)[C@H]1c1ccc(OC)cc1 (stereo partly drawn) [endo-46, (5R,6S,9S)-7-Ethoxy-6-(4-methoxyphenyl)-6,7,8,9-tetrahydro-5H-5,9-methanobenzo-[7]annulene]
[1]; [8]
  IC50: > 500 µM
Recombinant human AChE; [9]
  IC50: 270 ± 110 µM

## CCCOC1C[C@@H]2C[C@@H](c3ccccc32)[C@H]1c1ccc(OC)cc1 (stereo partly drawn) [endo-47, (5R,6S,9S)-6-(4-Methoxyphenyl)-7-propoxy-6,7,8,9-tetrahydro-5H-5,9-methanobenzo[7]annulene]
[1]; [8]
  IC50: > 200 µM
Recombinant human AChE; [9]
  IC50: > 100 µM
